# Target: recombinant human ACC2 (Homo sapiens (Human), UniProt O00763)
# Experiment: Measurement of inhibitory activity on human ACC2 (MALDI-TOF MS, acetyl CoA to malonyl CoA conversion)
# Type: biochemical
# Conditions: Table 154
# Description: Preparation 1: Preparation of Recombinant Human ACC2
# After a cDNA encoding human ACC2 (27 amino acid residue to 2458 amino acid residues from the N-terminus) was cloned from human kidney cDNA library (Clontech), human ACC2 gene containing His-tag sequence at 5′ terminus was inserted into pFastBac1 (Invitrogen). Recombinant baculovirus was generated using Bac-to-Bac baculovirus expression system (Invitrogen) according to the manufacturer's protocol. To express human ACC2, Sf-9 cells were infected with recombinant baculovirus. After infected cells were disrupted, the filtrated lysate was subjected to Ni-affinity chromatography and anion-exchange chromatography. The fractions containing human ACC2 protein were pooled as recombinant human ACC2 solution.
# The Measurement of Inhibitory Activity on Human ACC1 and the ACC2
# Recombinant human ACC1 and recombinant human ACC2, which were prepared by the method mentioned above, were preincubated with assay buffer solution (50 mM HEPES-KOH (pH 7.4), 10 mM magnesium chloride, 6-10 mM potassium citrate, 4 mM reduced form of glutathione, 1.5 mg/ml bovine serum albumin) for one hour. Then, 0.2 μL of each this invention compound solution (in DMSO) were dispensed to 384-well microplate, 5 μL of the preincubated enzyme solution and 5 μL of substrate solution (50 mM HEPES-KOH (pH 7.4), 1 mM ATP, 0.8 mM acetyl CoA and 25-50 mM potassium bicarbonate) were added to microplate. After centrifugation and shaking, the reaction mixtures were incubated in a humidified box at room temperature for 1 to 3 hours. After the incubation, the enzyme reactions were stopped by the addition of EDTA. Then, after the samples were cocrystallized with CHCA (α-cyano-4-hydroxy cinnamic acid) matrices on MALDI target plate, by using the matrix assist laser […] time-of-flight mass spectrometer (MALDI-TOF MS), samples were measured in reflector negative mode. Deprotonated ions of acetyl CoA (AcCoA) of substrate and malonyl CoA (MalCoA) of the reaction product were detected, then, the conversion rates of acetyl CoA to malonyl CoA was calculated by the intensity of [MalCoA-H]−/(Intensity of [MalCoA-H]−+Intensity of [AcCoA-H]−) using each signal strength. […] In addition, potassium citrate concentrations in assay buffer solution, potassium hydrogen carbonate concentrations in substrate solution and incubation time were adjusted by each lot of enzyme.
# recombinant human ACC2, sequence (O00763 27-2458): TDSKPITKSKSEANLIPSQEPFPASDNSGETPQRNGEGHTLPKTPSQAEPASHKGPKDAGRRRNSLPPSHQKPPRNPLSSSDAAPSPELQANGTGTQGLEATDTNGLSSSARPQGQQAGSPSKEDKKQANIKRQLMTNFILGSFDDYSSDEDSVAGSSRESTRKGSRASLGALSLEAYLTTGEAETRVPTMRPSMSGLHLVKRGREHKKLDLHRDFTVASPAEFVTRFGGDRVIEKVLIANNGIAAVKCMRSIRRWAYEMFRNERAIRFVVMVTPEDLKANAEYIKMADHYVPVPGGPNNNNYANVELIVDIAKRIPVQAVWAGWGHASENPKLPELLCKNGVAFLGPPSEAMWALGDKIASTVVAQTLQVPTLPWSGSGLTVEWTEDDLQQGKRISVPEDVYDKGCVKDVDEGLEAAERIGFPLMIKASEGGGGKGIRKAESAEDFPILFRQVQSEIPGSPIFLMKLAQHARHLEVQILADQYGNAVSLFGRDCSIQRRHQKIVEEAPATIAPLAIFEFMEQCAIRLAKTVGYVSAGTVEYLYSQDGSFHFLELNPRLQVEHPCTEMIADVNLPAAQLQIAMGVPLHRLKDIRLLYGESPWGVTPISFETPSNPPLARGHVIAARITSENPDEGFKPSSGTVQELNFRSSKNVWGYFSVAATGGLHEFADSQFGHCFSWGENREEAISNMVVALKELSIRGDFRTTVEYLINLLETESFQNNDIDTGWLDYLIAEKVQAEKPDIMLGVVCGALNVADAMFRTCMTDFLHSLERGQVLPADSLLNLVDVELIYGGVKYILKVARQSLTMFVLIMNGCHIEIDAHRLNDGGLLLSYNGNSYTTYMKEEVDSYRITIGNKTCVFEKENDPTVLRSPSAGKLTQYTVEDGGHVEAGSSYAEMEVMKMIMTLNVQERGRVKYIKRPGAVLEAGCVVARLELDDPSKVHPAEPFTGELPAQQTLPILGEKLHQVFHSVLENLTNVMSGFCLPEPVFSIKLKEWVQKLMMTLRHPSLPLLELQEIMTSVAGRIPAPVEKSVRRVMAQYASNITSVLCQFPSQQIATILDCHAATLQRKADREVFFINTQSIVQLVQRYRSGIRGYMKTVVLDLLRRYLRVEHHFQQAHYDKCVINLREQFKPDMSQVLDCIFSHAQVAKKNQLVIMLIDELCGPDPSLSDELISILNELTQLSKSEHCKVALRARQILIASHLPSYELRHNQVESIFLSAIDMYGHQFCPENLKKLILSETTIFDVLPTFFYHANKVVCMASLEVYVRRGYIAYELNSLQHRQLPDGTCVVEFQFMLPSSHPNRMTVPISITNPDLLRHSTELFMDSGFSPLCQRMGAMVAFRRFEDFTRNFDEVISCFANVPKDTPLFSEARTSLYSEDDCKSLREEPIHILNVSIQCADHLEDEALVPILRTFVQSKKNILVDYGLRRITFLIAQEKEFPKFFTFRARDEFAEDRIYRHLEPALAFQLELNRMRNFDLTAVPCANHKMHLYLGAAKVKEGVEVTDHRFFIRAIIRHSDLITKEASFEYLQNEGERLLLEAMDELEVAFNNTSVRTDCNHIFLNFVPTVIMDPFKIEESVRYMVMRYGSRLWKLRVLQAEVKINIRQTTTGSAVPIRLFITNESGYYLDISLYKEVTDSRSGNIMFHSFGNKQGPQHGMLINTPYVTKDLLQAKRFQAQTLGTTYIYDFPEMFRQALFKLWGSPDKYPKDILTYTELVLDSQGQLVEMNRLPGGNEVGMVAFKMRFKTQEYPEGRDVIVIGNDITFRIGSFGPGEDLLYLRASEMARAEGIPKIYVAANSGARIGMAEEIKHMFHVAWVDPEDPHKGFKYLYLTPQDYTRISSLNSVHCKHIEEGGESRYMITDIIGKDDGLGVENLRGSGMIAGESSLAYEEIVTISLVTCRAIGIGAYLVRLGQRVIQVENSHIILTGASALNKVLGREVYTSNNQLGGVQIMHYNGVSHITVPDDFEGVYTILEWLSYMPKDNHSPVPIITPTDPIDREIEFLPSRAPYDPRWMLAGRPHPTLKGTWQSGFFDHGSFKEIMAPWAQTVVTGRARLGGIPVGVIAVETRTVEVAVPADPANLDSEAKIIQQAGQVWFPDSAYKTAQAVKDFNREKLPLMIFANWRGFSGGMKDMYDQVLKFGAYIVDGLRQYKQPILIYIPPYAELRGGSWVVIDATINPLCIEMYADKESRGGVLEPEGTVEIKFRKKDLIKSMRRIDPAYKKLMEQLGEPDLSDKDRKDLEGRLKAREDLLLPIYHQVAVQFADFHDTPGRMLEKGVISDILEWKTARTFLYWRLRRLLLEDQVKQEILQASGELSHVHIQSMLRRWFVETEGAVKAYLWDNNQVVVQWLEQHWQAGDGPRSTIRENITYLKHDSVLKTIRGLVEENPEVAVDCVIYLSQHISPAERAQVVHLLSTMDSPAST
row,IC50 [nM],SMILES
1,102,CCOc1nc2ccc(O[C@H]3C[C@@H](OC[C@H](C)NC(C)=O)C3)c(F)c2s1 [Compound I-076]
2,187,CC(=O)N[C@@H](C)CO[C@H]1CC[C@H](Oc2ccc3c(c2Cl)OCCN(CC(F)(F)F)C3=O)CC1 [Compound I-094]
3,395,CC(=O)N[C@@H](C)COc1ccc(Oc2ccc3nc(C(C)C)sc3c2C#N)cn1 [Compound I-013]
4,166,CC(=O)N[C@@H](C)[C@@H](C)Oc1cnc(Oc2ccc3nc(C(C)(F)F)sc3c2F)cn1 [Compound I-057]
5,378,CC(=O)N[C@@H](C)COc1cnc(Oc2ccc3nc(C(C)(C)O)sc3c2Cl)cn1 [Compound I-027]
6,20,CCOc1nc2ccc(O[C@H]3C[C@H](OC[C@H](C)NC(C)=O)C3)c(Cl)c2s1 [Compound I-075]
7,84,CC(=O)N[C@@H](C)CO[C@H]1CC[C@H](Oc2ccc3nc(C(C)C)sc3c2C#N)CC1 [Compound I-051]
8,52,CC(=O)N[C@@H](C)COc1cnc(Oc2ccc3nc(C(C)C)oc3c2F)cn1 [Compound I-031]
9,89,CCOc1nc2ccc(Oc3cnc(OC[C@H](CO)NC(C)=O)cn3)c(F)c2s1 [Compound I-092]
10,54,CCOc1nc2ccc(Oc3cnc(OC[C@H](C)NC(=O)CO)cn3)c(Cl)c2s1 [Compound I-071]

# Same assay, conditions: Tables 155-159
row,SMILES,IC50 [nM]
1,CC(=O)N[C@@H](C)CO[C@H]1C[C@H](COc2ccc3nc(OC[C@@H](C)F)sc3c2)C1 [Compound I-140],144
2,CCOc1cc(F)c2nc(O[C@H]3CC[C@H](OC[C@H](C)NC(C)=O)CC3)n(C)c2c1 [Compound I-723],41
3,CC(=O)N[C@@H](C)CO[C@H]1CC[C@H](Oc2ccc3nc(O[C@H]4C[C@@H](C#N)C4)sc3c2F)CC1 [Compound I-162],74
4,CC(=O)N[C@@H](C)CO[C@H]1CC[C@H](Oc2cc3sc(OCC(C)(C)C#N)nc3cn2)CC1 [Compound I-263],862
5,CC(=O)N[C@@H](C)CO[C@H]1C[C@H](COc2ccc3nc(N4CCC(C#N)C4)sc3n2)C1 (stereo partly shown) [Compound I-288],759
6,CC(=O)N[C@@H](C)CO[C@H]1C[C@H](COc2ccc3nc(OCc4ccccc4)n(C)c3n2)C1 [Compound I-480],41
7,CCOc1nc2ccc(OC[C@H]3C[C@H](OC[C@H](CC)NC(C)=O)C3)c(F)c2s1 [Compound I-233],84
8,CC(=O)N[C@@H](C)CO[C@H]1C[C@H](COc2nccc(OCC(F)F)c2Cl)C1 [Compound I-315],503
9,CC(=O)N[C@@H](C)CO[C@H]1C[C@H](COc2ncnc(/C=C/c3ccccc3)c2C)C1 [Compound I-416],90
10,CC(=O)N[C@@H](C)CO[C@H]1C[C@H](COc2ncnc(OCC(C)(F)F)c2Cl)C1 [Compound I-357],103
11,CC(=O)N[C@@H](C)CO[C@H]1CC[C@H](Oc2nc3cc(OCC4CC4)ccc3n2C)CC1 [Compound I-567],167
12,CC(=O)N[C@@H](C)CO[C@H]1C[C@H](COc2nccc(OC3C[C@@H]4CC[C@@H]3C4)c2Cl)C1 (stereo partly shown) [Compound I-365],100
13,CC(=O)N[C@@H](C)CO[C@H]1C[C@H](COc2ncnc(OCc3ccc(C#N)cc3)c2Cl)C1 [Compound I-347],55
14,CC(=O)N[C@@H](C)CO[C@H]1C[C@H](COc2nccc(-c3ccc(F)cc3)c2C#N)C1 [Compound I-319],281
15,CC(=O)N[C@@H](C)CO[C@H]1C[C@H](COc2ncnc(-c3nc4ccccc4o3)c2Cl)C1 [Compound I-462],90
16,CC(=O)N[C@@H](C)CO[C@H]1C[C@H](COc2nccc3c2cnn3Cc2ccccc2)C1 [Compound I-387],392

row,SMILES,IC50 [nM]
1,CC(=O)N[C@@H](C)CO[C@H]1C[C@H](COc2ccc3nc(C(C)(F)F)sc3c2)C1 [Compound I-139],90
2,CC(=O)N[C@@H](C)CO[C@H]1CC[C@H](Oc2nc3c(F)cc(OCC(F)F)cc3n2C)CC1 [Compound I-707],84
3,CC(=O)N[C@@H](C)CO[C@H]1CC[C@H](Oc2ncc(-c3ncc(C(F)(F)F)cn3)cc2C#N)CC1 [Compound I-546],66
4,CC(=O)N[C@@H](C)CO[C@H]1CC[C@H](Oc2cc3sc(OC(C)CF)nc3cc2Cl)CC1 (stereo partly shown) [Compound I-168],95
5,CC(=O)N[C@@H](C)CO[C@H]1C[C@H](COc2ncnc(-n3oc4ccccc4c3=O)c2Cl)C1 [Compound I-398],115
6,CC(=O)N[C@@H](C)CO[C@H]1C[C@H](c2nc3cnc(OCc4ccccc4)cc3o2)C1 [Compound I-456],280
7,CCOc1ccc2nc(O[C@H]3CC[C@H](OC[C@H](C)NC(C)=O)CC3)n(CC)c2c1 [Compound I-579],334
8,CC(=O)N[C@@H](C)CO[C@H]1CC[C@H](Oc2nc3c(Cl)c(Cl)c(OCC(F)F)cc3n2C)CC1 [Compound I-609],525
9,CC(=O)N[C@@H](C)CO[C@H]1C[C@H](COc2ncnc3c2ccn3Cc2ccccn2)C1 [Compound I-432],588
10,CC(=O)N[C@@H](C)CO[C@H]1C[C@H](COc2nc3sc(N4CC(F)(F)C4)nc3cc2F)C1 [Compound I-268],42
11,CC(=O)N[C@@H](C)CO[C@H]1C[C@H](COc2nccc(N3CC(F)(F)C3)c2Cl)C1 [Compound I-323],345
12,CC(=O)N[C@@H](C)CO[C@H]1CC[C@H](Oc2ccc3nc(OC4COC4)sc3c2F)CC1 [Compound I-130],57
13,CC(=O)N[C@@H](C)C(F)(F)C[C@@H]1CC[C@@H](Oc2nc3c(F)cc(OCC(F)F)c(F)c3n2C)CO1 [Compound I-643],250
14,CC(=O)N[C@@H](C)CO[C@H]1CC[C@H](Oc2cc3sc(OC4CC4)nc3cn2)CC1 [Compound I-224],34
15,CC(=O)N[C@@H](C)CO[C@H]1CC[C@H](Oc2cc(C)c3nc(N4CC(F)(F)C4)sc3n2)CC1 [Compound I-278],87
16,CC(=O)N[C@@H](C)CO[C@H]1C[C@H](COc2ncnc(OCc3csc(Cl)n3)c2Cl)C1 [Compound I-411],937

# More lines, now with the values ahead:
row,IC50 [nM],SMILES
1,30,CC(=O)N[C@@H](C)CO[C@H]1C[C@H](COc2ccc3nc(OC4(C)CC4)sc3n2)C1 [Compound I-200]
2,28,CC(=O)N[C@@H](C)CO[C@H]1C[C@H](COc2ccc3nc(OCC4(F)COC4)sc3n2)C1 [Compound I-195]
3,27,CC(=O)N[C@@H](C)CC[C@H]1OC[C@H](Oc2nc3c(F)cc(OCC(F)F)c(F)c3n2C)CO1 [Compound I-615]
4,27,CCOc1nc2cc(F)c(O[C@H]3CC[C@H](OC[C@H](C)NC(C)=O)CC3)nc2n1C [Compound I-516]
5,26,CC(=O)N[C@@H](C)CC[C@H]1OC[C@H](Oc2nc3cnc(OCC(F)F)c(Cl)c3n2C)C[C@@H]1C [Compound I-644]
6,26,CCOc1nc2ccc(OC[C@H]3C[C@H](OC[C@H](C)NC(C)=O)C3)cc2s1 [Compound I-111]
7,25,CC(=O)N[C@@H](C)CO[C@H]1CC[C@H](Oc2nc3ccc(Br)c(F)c3n2C)CC1 [Compound I-691]
8,23,CC(=O)N[C@@H](C)[C@H](C)O[C@H]1CC[C@H](Oc2nc3c(F)cc(OCC(F)F)c(F)c3n2C)CC1 [Compound I-659]
9,21,CC(=O)N[C@@H](C)CO[C@H]1C[C@H](COc2ncnc(NCc3ccccc3)c2Cl)C1 [Compound I-391]
10,21,CC(=O)N[C@@H](C)CO[C@H]1CC[C@H](Oc2nc3ccc(OCC4CC4)cc3s2)CC1 [Compound I-550]
11,17,CC(=O)N[C@@H](C)CO[C@H]1C[C@H](COc2ccc3nc(OC4CC4)sc3c2F)C1 [Compound I-154]
12,17,CC(=O)N[C@@H](C)CO[C@]1(C)C[C@@H](COc2nccc(-c3ccc(F)cc3)c2Cl)C1 [Compound I-400]
13,15,CC(=O)N[C@@H](C)CO[C@H]1CC[C@H](Oc2ccc3nc(OCC(F)F)sc3c2F)CC1 [Compound I-123]
14,8,CC(=O)N[C@@H](C)CO[C@H]1CC[C@H](Oc2nc3cnc(OC4CC4)c(F)c3n2C)CC1 [Compound I-667]
15,7,C[C@@H](CO[C@H]1CC[C@H](Oc2nc3c(F)cc(OC4CC4)c(F)c3n2C)CC1)NC(=O)CO [Compound I-668]
16,7,CC(=O)N[C@@H](C)CO[C@H]1CC[C@H](Oc2nc3c(F)cc(OCc4ccccc4)c(F)c3n2C)CC1 [Compound I-652]
17,5,CC(=O)N[C@@H](C)CO[C@H]1CC[C@H](Oc2nc3cnc(OCC4CC4(F)F)c(Cl)c3n2C)CC1 (stereo partly shown) [Compound I-708]
18,4,CC(=O)N[C@@H](C)CO[C@H]1C[C@H](COc2ncnc(OCc3ccc(F)cc3)c2F)C1 [Compound I-461]
19,4,CCOc1cc(F)c2nc(O[C@H]3CC[C@H](OC[C@H](C)NC(C)=O)CC3)n(C)c2c1F [Compound I-665]
